According to publication PMC11879280, “Antimicrobial activity of peptoids against Metallo-β-lactamase-producing Klebsiella pneumoniae, Acinetobacter baumannii, Pseudomonas aeruginosa, and other WHO priority pathogens, including Candida auris” (Journal of Applied Microbiology, 2025):
Like-named read-outs stand apart in the source and are kept apart here. Square brackets hold non-standard residues; d marks the D form. Peptide text beside a SMILES is read from it. Nspe(4-Br) = C[C@H](NCC(=O)O)c1ccc(Br)cc1; N(tridecyl)Gly = CCCCCCCCCCCCCNCC(=O)O; Nspe = C[C@H](NCC(=O)O)c1ccccc1; Nlys = NCCCCNCC(=O)O

What was measured:
C. auris CBS12373 = assay: Broth microdilution MIC; format: cell-based, Candida auris
C. auris strains = conditions: two C. auris strains
Method: (§1) Briefly, bacteria were suspended in cation-adjusted Mueller–Hinton broth (CAMHB; Oxoid, UK) for antibiotics, or MHB (Oxoid, UK) for peptidomimetics to obtain 5 × 10^5 colony forming unit (CFU) ml^−1. […] Positive controls contained only microbes, and blanks contained only media. Microbial suspensions (100 µl) were added to wells, plates wrapped, and incubated at 37°C, 120 rpm for 16–20 h. After incubation, suspensions were removed, log10 diluted, and plated on Trypticase Soya Agar with phosphatidylcholine and Tween 80 to determine minimum bactericidal or fungicidal concentration (MBC or MFC). […] Geometric mean MIC of the peptoids were calculated to evaluate the broad overview of antimicrobial activity across the pathogens.
The therapeutic indices (TIs) of the compounds were calculated with the use of following formula: […]

[1] = test system: horse red blood cells (RBCs); assay: Haemolysis assay; format: cell-based
Method: The haemolytic activity of the peptidomimetics was performed to determine mammalian cell safety. This assay used horse red blood cells (RBCs) (Sigma–Aldrich, USA) as described previously (Willcox et al. [2008], Chongsiriwatana et al. [2017], Yasir et al. [2019b]). RBCs were washed three times with PBS at 470 g for 5 min. Peptoids (0.5–250 μg ml^−1) were prepared in PBS and added to washed RBCs, then incubated at 37°C for 4 h. After incubation, cells were centrifuged at 1057 g for 10 min, and the supernatant’s OD at 540 nm was measured for lysis. PBS-only RBCs served as the negative control (no haemolysis), and Milli-Q water-treated RBCs as the positive control (100% lysis). Percent haemolysis was calculated as: (ODT − ODNC)/(ODPC − ODNC) × 100, where ODT, ODNC, and ODPC are the absorbances of the test, negative, and positive controls, respectively. This experiment was performed in triplicate.

A. baumannii 006 = test system: A. baumannii 006
Method: as §1

A. baumannii 007 = test system: A. baumannii 007
Method: as §1

A. baumannii 008 = test system: A. baumannii 008
Method: as §1

A. baumannii ATCC 19 606 = test system: A. baumannii ATCC 19 606
Method: as §1

E. coli 0011 = test system: E. coli 0011
Method: as §1

E. coli 0015 = test system: E. coli 0015
Method: as §1

E. coli 005 = test system: E. coli 005
Method: as §1

En. cloacae 001 = test system: En. cloacae 001
Method: as §1

En. cloacae 003 = test system: En. cloacae 003
Method: as §1

En. cloacae 005 = test system: En. cloacae 005
Method: as §1

K. pneumoniae JIE2713 = test system: K. pneumoniae JIE2713
Method: as §1

K. pneumoniae JIE4212 = test system: K. pneumoniae JIE4212
Method: as §1

P. aeruginosa 216 = test system: P. aeruginosa 216
Method: as §1

P. aeruginosa 33 = test system: P. aeruginosa 33
Method: as §1

P. aeruginosa AR-1270 = test system: P. aeruginosa AR-1270
Method: as §1

S. aureus 117 = test system: S. aureus 117
Method: as §1

S. aureus 38 = test system: S. aureus 38
Method: as §1

[2] = CBS 12 373, RPMI 1640 with MOPS, 5 × 10^3 CFU ml^−1, ≥90% reduction (≥50% for fluconazole)
[3] = horse RBCs in PBS, 37°C, 4 h, value in brackets
[4] = A. baumannii 006, MHB (melimine/Mel4 with 0.2% BSA, 0.01% acetic acid), mean MIC
[5] = A. baumannii 007, MHB (melimine/Mel4 with 0.2% BSA, 0.01% acetic acid), mean MIC
[6] = A. baumannii ATCC 19 606, MHB (melimine/Mel4 with 0.2% BSA, 0.01% acetic acid), mean MIC
[7] = E. coli 0011, MHB (melimine/Mel4 with 0.2% BSA, 0.01% acetic acid), mean MIC
[8] = E. coli 0015, MHB (melimine/Mel4 with 0.2% BSA, 0.01% acetic acid), mean MIC
[9] = E. coli 005, MHB (melimine/Mel4 with 0.2% BSA, 0.01% acetic acid), mean MIC
[10] = En. cloacae 001, MHB (melimine/Mel4 with 0.2% BSA, 0.01% acetic acid), mean MIC
[11] = En. cloacae 003, MHB (melimine/Mel4 with 0.2% BSA, 0.01% acetic acid), mean MIC
[12] = En. cloacae 005, MHB (melimine/Mel4 with 0.2% BSA, 0.01% acetic acid), mean MIC
[13] = K. pneumoniae JIE2713, MHB (melimine/Mel4 with 0.2% BSA, 0.01% acetic acid), mean MIC
[14] = K. pneumoniae JIE4212, MHB (melimine/Mel4 with 0.2% BSA, 0.01% acetic acid), mean MIC
[15] = P. aeruginosa 216, MHB (melimine/Mel4 with 0.2% BSA, 0.01% acetic acid), mean MIC
[16] = P. aeruginosa AR-1270, MHB (melimine/Mel4 with 0.2% BSA, 0.01% acetic acid), mean MIC
[17] = P. aeruginosa 33, MHB (melimine/Mel4 with 0.2% BSA, 0.01% acetic acid), mean MIC
[18] = S. aureus 117, MHB (melimine/Mel4 with 0.2% BSA, 0.01% acetic acid), mean MIC
[19] = S. aureus 38, MHB (melimine/Mel4 with 0.2% BSA, 0.01% acetic acid), mean MIC

| SMILES | MIC against C. auris (C. auris CBS12373; [2]) [µg/mL] | MIC against C. auris (C. auris CBS12373; CBS12373) [µM] | HD10 (10% haemolytic dose) ([1]; red cells of horse, 4 h) [µg/mL] | HD50 (50% haemolytic dose) ([1]; red cells of horse, 4 h) [µg/mL] | MIC of peptidomimetics (A. baumannii 006; 006) [µM] | MIC of peptidomimetics (A. baumannii 006; [4]) [µg/mL] | MIC of peptidomimetics (A. baumannii 007; 007) [µM] | MIC of peptidomimetics (A. baumannii 007; [5]) [µg/mL] | MIC of peptidomimetics (A. baumannii 008; 008) | MIC of peptidomimetics (A. baumannii ATCC 19 606; [6]) [µg/mL] | MIC of peptidomimetics (A. baumannii ATCC 19 606; ATCC 19) [µM] | MIC of peptidomimetics (E. coli 0011; 0011) [µM] | MIC of peptidomimetics (E. coli 0011; [7]) [µg/mL] | MIC of peptidomimetics (E. coli 0015; 0015) [µM] | MIC of peptidomimetics (E. coli 0015; [8]) [µg/mL] | MIC of peptidomimetics (E. coli 005; 005) [µM] | MIC of peptidomimetics (E. coli 005; [9]) [µg/mL] | MIC of peptidomimetics (En. cloacae 001) [µM] | MIC of peptidomimetics (En. cloacae 001; [10]) [µg/mL] | MIC of peptidomimetics (En. cloacae 003) [µM] | further results |
| --- | --- | --- | --- | --- | --- | --- | --- | --- | --- | --- | --- | --- | --- | --- | --- | --- | --- | --- | --- | --- | --- |
| C[C@@H](c1ccccc1)N(CC(N)=O)C(=O)CN(C(=O)CN(CCCCN)C(=O)CN(C(=O)CN(C(=O)CN(CCCCN)C(=O)CN(C(=O)CN(C(=O)CN(CCCCN)C(=O)CN(C(=O)CN(C(=O)CNCCCCN)[C@@H](C)c1ccccc1)[C@@H](C)c1ccccc1)[C@@H](C)c1ccccc1)[C@@H](C)c1ccccc1)[C@@H](C)c1ccccc1)[C@@H](C)c1ccccc1)[C@@H](C)c1ccccc1 [TM1] (H-[Nlys][Nspe][Nspe][Nlys][Nspe][Nspe][Nlys][Nspe][Nspe][Nlys][Nspe][Nspe]-NH2) | 3.9 | 2.1 | 8 | 44.8 | 2.1 | 3.9 | 2.1 | 3.9 | 7.8 µg/mL | 3.9 | 2.1 | 17.2 | 31.3 | 17.2 | 31.3 | 8.6 | 15.6 | 8.6 | 15.6 | 34.4 | Geometric mean MICCA (C. auris strains): 7.8 µg/mL; HD10 (10% haemolytic dose) [1, 3]: 4.4 µmol/L; HD50 (50% haemolytic dose) [1, 3]: 24.6 µmol/L; MIC of peptidomimetics (En. cloacae 003; [11]): 62.5 µg/mL; MIC of peptidomimetics (En. cloacae 005): 8.6 µM; MIC of peptidomimetics (En. cloacae 005; [12]): 15.6 µg/mL; MIC of peptidomimetics (K. pneumoniae JIE2713; [13]): 62.5 µg/mL; MIC of peptidomimetics (K. pneumoniae JIE2713; K. pneumoniae JIE2713, value in brackets): 34.4 µM; MIC of peptidomimetics (K. pneumoniae JIE4212; [14]): 15.6 µg/mL; MIC of peptidomimetics (K. pneumoniae JIE4212; K. pneumoniae JIE4212, value in brackets): 8.6 µM; MIC of peptidomimetics (P. aeruginosa 216; 216): 8.6 µM; MIC of peptidomimetics (P. aeruginosa 216; [15]): 15.6 µg/mL; MIC of peptidomimetics (P. aeruginosa 33): 15.6 (8.6) µg ml^−1; MIC of peptidomimetics (P. aeruginosa 33; 33): 8.6 µmol/L; MIC of peptidomimetics (P. aeruginosa AR-1270; [16]): 31.3 µg/mL; MIC of peptidomimetics (P. aeruginosa AR-1270; P. aeruginosa AR-1270, value in brackets): 17.2 µM; MIC of peptidomimetics (S. aureus 117; 117): 7.8 µg/mL; MIC of peptidomimetics (S. aureus 38; 38): 7.8 µg/mL |
| C[C@@H](c1ccc(Br)cc1)N(CC(N)=O)C(=O)CN(C(=O)CN(CCCCN)C(=O)CN(C(=O)CN(C(=O)CNCCCCN)[C@@H](C)c1ccccc1)[C@@H](C)c1ccc(Br)cc1)[C@@H](C)c1ccccc1 [TM2] (H-[Nlys][Nspe][Nspe(4-Br)][Nlys][Nspe][Nspe(4-Br)]-NH2) | 3.9 | 3.6 | 20 | 64 | 7.2 | 7.8 | 29.0 | 31.3 | 15.6 µg/mL | 31.3 | 29.0 | 58.1 | 62.5 | 58.1 | 62.5 | 116.2 | 125 | 29.0 | 31.3 | 29.0 | Geometric mean MICCA (C. auris strains): 11.1 µg/mL; HD10 (10% haemolytic dose) [1]: 18.6 µmol/L; HD50 (50% haemolytic dose) [1]: 59.5 µmol/L; MIC of peptidomimetics (En. cloacae 003; [11]): 31.3 µg/mL; MIC of peptidomimetics (En. cloacae 005): 15.6 µg/mL; MIC of peptidomimetics (K. pneumoniae JIE2713; JIE2713): 116.2 µM; MIC of peptidomimetics (K. pneumoniae JIE2713; [13]): 125 µg/mL; MIC of peptidomimetics (K. pneumoniae JIE4212; JIE4212): 58.1 µM; MIC of peptidomimetics (K. pneumoniae JIE4212; [14]): 62.5 µg/mL; MIC of peptidomimetics (P. aeruginosa 216; 216): 14.5 µM; MIC of peptidomimetics (P. aeruginosa 216; [15]): 15.6 µg/mL; MIC of peptidomimetics (P. aeruginosa 33; 33): 29.0 µmol/L; MIC of peptidomimetics (P. aeruginosa 33; [17]): 31.3 µg/mL; MIC of peptidomimetics (P. aeruginosa AR-1270; AR-1270): 29.0 µM; MIC of peptidomimetics (P. aeruginosa AR-1270; [16]): 31.3 µg/mL; MIC of peptidomimetics (S. aureus 117; 117): 7.2 µM; MIC of peptidomimetics (S. aureus 117; [18]): 7.8 µg/mL; MIC of peptidomimetics (S. aureus 38; 38): 7.2 µM; MIC of peptidomimetics (S. aureus 38; [19]): 7.8 µg/mL |
| CCCCCCCCCCCCCNCC(=O)N(CCCCN)CC(=O)N(CC(=O)N(CC(=O)N(CCCCN)CC(=O)N(CCCCN)CC(N)=O)[C@@H](C)c1ccccc1)[C@@H](C)c1ccccc1 [TM15] (H-[N(tridecyl)Gly][Nlys][Nspe][Nspe][Nlys][Nlys]-NH2) | 3.9 | 4.0 | 23.6 | 86.4 | 64.9 | 62.5 | 64.9 | 62.5 | 32.5 µM | 62.5 | 64.9 | 64.9 | 62.5 | 16.2 | 15.6 | 64.9 | 62.5 | 16.2 | 15.6 | 64.9 | HD10 (10% haemolytic dose) [1]: 24.5 µmol/L; HD50 (50% haemolytic dose) [1]: 89.7 µmol/L; MIC of peptidomimetics (A. baumannii 008; A. baumannii 008, MHB (melimine/Mel4 with 0.2% BSA, 0.01% acetic acid), mean MIC): 31.3 µg/mL; MIC of peptidomimetics (En. cloacae 003; [11]): 62.5 µg/mL; MIC of peptidomimetics (En. cloacae 005): 32.5 µM; MIC of peptidomimetics (En. cloacae 005; [12]): 31.3 µg/mL; MIC of peptidomimetics (K. pneumoniae JIE2713; JIE2713): 129.8 µM; MIC of peptidomimetics (K. pneumoniae JIE2713; [13]): 125 µg/mL; MIC of peptidomimetics (K. pneumoniae JIE4212; JIE4212): 64.9 µM; MIC of peptidomimetics (K. pneumoniae JIE4212; [14]): 62.5 µg/mL; MIC of peptidomimetics (P. aeruginosa 216; 216): 16.2 µM; MIC of peptidomimetics (P. aeruginosa 216; [15]): 15.6 µg/mL; MIC of peptidomimetics (P. aeruginosa 33; 33): 16.2 µmol/L; MIC of peptidomimetics (P. aeruginosa 33; [17]): 15.6 µg/mL; MIC of peptidomimetics (P. aeruginosa AR-1270; AR-1270): 32.5 µM; MIC of peptidomimetics (P. aeruginosa AR-1270; [16]): 31.3 µg/mL; MIC of peptidomimetics (S. aureus 117; 117): 8.1 µM; MIC of peptidomimetics (S. aureus 117; [18]): 7.8 µg/mL; MIC of peptidomimetics (S. aureus 38; 38): 8.1 µM; MIC of peptidomimetics (S. aureus 38; [19]): 7.8 µg/mL |
